# Test results reported in patent publication US5130300A, “Method for enhancing growth of mammary parenchyma” (Monsanto Company, priority 1987, dated 1992).
# Key:
# [1] = test system: Quarter-Udders in Pregnant Beef Cattle; assay: Intramammary infusion of prostaglandin E1 or E2, quarter-udder weights and DNA (Examples 25-28); type: in vivo, cross-bred beef cows; conditions: for DNA, % Increase, (A-B)/B / DNA, Mean Increase (A-B) / Dry Weight, % Increase, (A-B)/B / Dry Weight, Mean Increase (A-B) / Wet Weight, % Increase, (A-B)/B / Wet Weight, Mean Increase (A-B) / Dry Fat-Free Weight, % Increase, (A-B)/B / Dry Fat-Free Weight, Mean Increase (A-B): B = excipient only
# Procedure: 24 pregnant, non-lactating, cross-bred beef cows in their last 45-105 days of gestation were housed in a free-stall facility, fed a ration of alfalfa hay and pelleted concentrate, and administered 5 ml of an excepient (MCT-Oil, a Mead Johnson Corp. medium chain triglyceride which is a lipid fraction of coconut oil consisting primarily of triglycerides of C8 and C10 fatty acids as follows: C8 -67%; C10 -23%; <C8 -6%; >C10 -4%) into each quarter-udder by intramammary infusion through the streak cannal on days 1, 3, 5, 7 and 9 of this study. The 48 front and rear udder halves were randomly divided into 4 groups, with one quarter of each udder half treated and its laterally opposite quarter-udder used as a control. In the treatment infusions, the excipient contained Prostaglandin (PG) E1 or E2 from Sigma Chemical Co., St. Louis, Mo. (Catalog Nos. 86F-0406 and -0404). The amounts of PG in each infusion were: Group 1-87.5 micrograms of E2; Group 2-875 micrograms of E2; Group 3-87.5 micrograms of E1; Group 4-875 micrograms of E1. Animals were prepared and infused as in Examples 23-24; the effects were determined as in Examples 1-2. Results for Groups 1-4 are in Tables 15-18, respectively.
# [2] = test system: Quarter-Udders in Pregnant Beef Cows; assay: Intramammary infusion of hEGF or mEGF, quarter-udder weights and DNA (Examples 1-2); type: in vivo, cross-bred beef cows; conditions: 25 micrograms per infusion, days 1,3,5,7,9, Freund's emulsion
# Procedure: 12 pregnant, non-lactating, cross-bred beef cows within their last 40-80 days of gestation were housed in a free-stall facility, fed a ration of alfalfa hay and pelleted concentrate, and administered 10 ml of an excipient (Freund's Incomplete Adjuvant emulsified with an equal volume of 0.9% sterile saline) into each quarter-udder by intramammary infusion through the streak canal on days 1, 3, 5, 7 and 9 of this study. Infusions were carried out using a 3.2 centimeter long, approximately 12 gauge, blunt-tipped plastic teat infusion cannula obtained from Jorgensen Laboratories, Loveland, Colo. Because front and rear udder halves are not of equal size, treatment vs. control comparisons were made between laterally opposite quarters, i.e., front right vs. front left and rear right vs. rear left. Treatments were randomly assigned to right or left udder-halves, with the contralateral half serving as its control. […] (the other 6 animals).
# Prior to treatment, each animal was teatdipped for 3 consecutive days and each teat was pre-cleaned with 70% ethanol in water on the day of treatment. On day 14 the cows were sacrificed and their mammary glands excised. Each udder (milked out if necessary) was skinned, divided along the median suspensory ligament and then into front right, front left, rear right and rear left udder quarters. Each quarter-udder was ground, a representative 200 gm sample was homogenized with 4 times its volume of water, and the total homogenate volume of each was measured.
# To determine dry weight of each quarter-udder, three 10 ml aliquots of a 1:5 diluted homogenate were placed in pre-weighed pans, dried overnight at 60° and then dried and weighed to a consistent value.
# To determine dry fat-free tissue weight of each quarter-udder, three 5 ml aliquots of the undiluted homogenate were extracted by the method of Anderson, 41 J. Anim. Sci. 118 (1975) except that samples were placed in pre-weighed 25×150 mm glass centrifuge tubes and extracted overnight with 10 ml ethanol:ether (3:1), then centrifuged (5 min at 500 rpm) and the supernatant aspirated; an additional 10 ml aliquot of ethanol:ether was added for a second extraction; and the sample was dried under nitrogen until a consistent value was obtained.
# DNA in each quarter-udder was determined by the method of Burton, 12B Methods in Enzymol. 163-66 (1968) using an assay solution of 15% trichloroacetic acid (TCA) in 2N HCl. In these determinations, aliquots of gland homogenate were diluted 1:5 with water and rehomogenized. Using triplicate 0.25 ml or 0.5 ml aliquots of these homogenates, each aliquot was mixed with 2 ml of the assay solution. After 30 min, the samples were centrifuged for 10 min at 3000 rpm and the resulting pellets were washed with 2 ml of a 10% solution of TCA in distilled water. After recentrifugation, the resulting pellets were disrupted in 2 ml of 0.5N perchloric acid and heated for 30 min at 70° to extract DNA. Samples were centrifuged and 1 ml of each resulting supernatant was placed in a 12×75 mm tube. After addition of 2 ml of a solution of 1.5 g diphenylamine and 1.5 ml H2 SO4 in 100 ml glacial acetic acid (and 0.1 ml of 1.6% aqueous acetaldehyde per 20 ml reagent just prior to use), the samples were vortexed and incubated overnight at 27°. Calf thymus DNA was the standard.
# [3] = total of 0.4375 milligrams (87.5 micrograms per infusion) in MCT-Oil
# [4] = total of 0.4375 milligrams in MCT-Oil
# [5] = total of 4.375 milligrams (875 micrograms per infusion) in MCT-Oil
# [6] = total of 4.375 milligrams in MCT-Oil
# [7] = B = opposite quarter, excipient only
molecule,measurement,setting,value
"CCCCC[C@H](O)/C=C/[C@H]1[C@H](O)CC(=O)[C@@H]1CCCCCCC(=O)O [Prostaglandin E1, [11α,13E,15S]-11,15-Dihydroxy-9-oxoprost-13-en-1-oic acid]","DNA, Treatment Mean",[1]; [3],2881 mg
same,"Dry Fat-Free Weight, Treatment Mean",[1]; [3],180.9 g
same,"Dry Weight, Treatment Mean",[1]; [3],259.3 g
same,"Wet Weight, Treatment Mean",[1]; [3],972.5 g
same,"DNA, % Increase, (A-B)/B",[1]; [4],26%
same,"DNA, Mean Increase (A-B)",[1]; [4],597 mg
same,"Dry Weight, % Increase, (A-B)/B",[1]; [4],23.0%
same,"Dry Weight, Mean Increase (A-B)",[1]; [4],48.7 g
same,"Wet Weight, % Increase, (A-B)/B",[1]; [4],25.0%
same,"Wet Weight, Mean Increase (A-B)",[1]; [4],194.5 g
same,"DNA, Treatment Mean",[1]; [5],4218 mg
same,"Dry Fat-Free Weight, Treatment Mean",[1]; [5],247.7 g
same,"Dry Weight, Treatment Mean",[1]; [5],379.6 g
same,"Wet Weight, Treatment Mean",[1]; [5],1435.5 g
same,"DNA, % Increase, (A-B)/B",[1]; [6],51.1%
same,"DNA, Mean Increase (A-B)",[1]; [6],1426 mg
same,"Dry Fat-Free Weight, % Increase, (A-B)/B",[1]; [6],31.0%
same,"Dry Fat-Free Weight, Mean Increase (A-B)",[1]; [6],58.7 g
same,"Dry Weight, % Increase, (A-B)/B",[1]; [6],41.5%
same,"Dry Weight, Mean Increase (A-B)",[1]; [6],111.4 g
same,"Wet Weight, % Increase, (A-B)/B",[1]; [6],51.2%
same,"Wet Weight, Mean Increase (A-B)",[1]; [6],486.2 g
"CCCCC[C@H](O)/C=C/[C@H]1[C@H](O)CC(=O)[C@@H]1C/C=C\CCCC(=O)O [Prostaglandin E2, [5Z,11α,13E,15S]-11,15-Dihydroxy-9-oxoprosta-5,13-dien-1-oic acid]","DNA, Treatment Mean",[1]; [3],5203 mg
same,"Dry Fat-Free Weight, Treatment Mean",[1]; [3],351.8 g
same,"Dry Weight, Treatment Mean",[1]; [3],525.5 g
same,"Wet Weight, Treatment Mean",[1]; [3],1966.9 g
same,"DNA, % Increase, (A-B)/B",[1]; [4],10.1%
same,"DNA, Mean Increase (A-B)",[1]; [4],479 mg
same,"Dry Fat-Free Weight, % Increase, (A-B)/B",[1]; [4],18.1%
same,"Dry Fat-Free Weight, Mean Increase (A-B)",[1]; [4],54.0 g
same,"Dry Weight, % Increase, (A-B)/B",[1]; [4],8.3%
same,"Dry Weight, Mean Increase (A-B)",[1]; [4],40.6 g
same,"Wet Weight, % Increase, (A-B)/B",[1]; [4],13.3%
same,"Wet Weight, Mean Increase (A-B)",[1]; [4],231.4 g
same,"DNA, Treatment Mean",[1]; [5],3397 mg
same,"Dry Fat-Free Weight, Treatment Mean",[1]; [5],194.5 g
same,"Dry Weight, Treatment Mean",[1]; [5],312.7 g
same,"Wet Weight, Treatment Mean",[1]; [5],1030.8 g
same,"DNA, % Increase, (A-B)/B",[1]; [6],44.6%
same,"DNA, Mean Increase (A-B)",[1]; [6],1049 mg
same,"Dry Fat-Free Weight, % Increase, (A-B)/B",[1]; [6],34.8%
same,"Dry Fat-Free Weight, Mean Increase (A-B)",[1]; [6],50.2 g
same,"Dry Weight, % Increase, (A-B)/B",[1]; [6],42.8%
same,"Dry Weight, Mean Increase (A-B)",[1]; [6],93.7 g
same,"Wet Weight, % Increase, (A-B)/B",[1]; [6],38.9%
same,"Wet Weight, Mean Increase (A-B)",[1]; [6],288.8 g
"mEGF: mouse EGF, culture-grade, from mouse submaxillary glands, Collaborative Research Corp. Catalog No. 40001 (NSYPGCPSSYDGYCLNGGVCMHIESLDSYTCNCVIGYSGDRCQTRDLRWWELR; not fully specified; Epidermal growth factor; UniProt P01132 977-1029, looked up)","DNA, % Increase, (A-B)/B",[2]; [7],13.8%
same,"DNA, Mean Increase (A-B)",[2]; [7],110.2 mg
same,"Dry Fat-Free Weight, % Increase, (A-B)/B",[2]; [7],7.9%
same,"Dry Fat-Free Weight, Mean Increase (A-B)",[2]; [7],5.0 g
same,"Dry Weight, % Increase, (A-B)/B",[2]; [7],1.6%
same,"Dry Weight, Mean Increase (A-B)",[2]; [7],2.3 g
same,"Wet Weight, % Increase, (A-B)/B",[2]; [7],4.4%
same,"Wet Weight, Mean Increase (A-B)",[2]; [7],17.6 g
same,"DNA, Treatment Mean",[2]; day 14,905.1 mg
same,"Dry Fat-Free Weight, Treatment Mean",[2]; day 14,69.6 g
same,"Dry Weight, Treatment Mean",[2]; day 14,150.2 g
same,"Wet Weight, Treatment Mean",[2]; day 14,419.6 g
same,"DNA, Avg % Increase/Animal",[2]; vs excipient-only quarter,12.0%
same,"Dry Fat-Free Weight, Avg % Increase/Animal",[2]; vs excipient-only quarter,5.2%
same,"Dry Weight, Avg % Increase/Animal",[2]; vs excipient-only quarter,2.1%
same,"Wet Weight, Avg % Increase/Animal",[2]; vs excipient-only quarter,1.8%
